# Marks after values point to notes of the source that are not given here.
# Key:
# [1] = population PK model estimate, mice
# [2] = set-up: method as in earlier work; conditions: PBPK model parameter, ref [17, 18] and Drugbank, cited from earlier work
# [3] = set-up: method as in earlier work; conditions: PBPK model parameter, ref [17, 18] and Drugbank, cited from earlier work; remark: listed apart in the source
# [4] = In vivo pharmacokinetic study in mice, intravenous ibrutinib (plasma); conditions: female wild-type FVB mice, ibrutinib 1 mg/kg IV; for PCI-45227 AUC(0-last) / PCI-45227 Cmax: mean (SD)
# Procedure: (§1) Experiments were performed with male and female mice from inbred wild-type strains (FVB, C57BL/6, DBA) or with age- and sex-matched genetically engineered mice with a deficiency of the Cyp3a locus [(8 genes; FVB.129P2-Cyp3a13^tm1Ahs Del (5Cyp3a57-Cyp3a59)1Ahs); ref. [16]; CYP3A^−/−], a deficiency of the intestinal transporter OATP2B1 (ref. [17]; OATP2B1 ^−/−), or the hepatic transporter OATP1B2 (ref. [18]; OATP1B2 ^−/−). […] The studies were approved by the University Laboratory Animal Resources Animal Care and Use Committee at The Ohio State University (Columbus, OH). […] For in vivo studies, drugs were prepared in standard vehicles ([19, 20]). Details regarding the preparation of drugs are provided in the Supplementary Methods.
# (§2) Pharmacokinetic studies were performed as described previously ([21]). Further details are provided in the Supplementary Methods.
# (§3) The lower limit of quantification was 5 ng/mL, using 5-μL sample volumes. Details regarding the analytic method are provided in the Supplementary Methods.
# (§4) Ketoconazole was prepared for oral administration as a 10-mg/mL suspension in PEG400, and cobicistat as a 6-mg/mL suspension in corn oil.
# (§5) Pharmacokinetic studies were performed as previously described.
# [5] = In vivo pharmacokinetic study in mice, oral ibrutinib (plasma, LC-MS/MS)
# Procedure: as §1, §2, §3, §4, §5
# The analytical equipment consisted of a Vanquish UHPLC system, a TSQ Quantum Ultra triple quadrupole mass spectrometer from Thermo Fisher Scientific, and Thermo Trace Finder General Quan system software (version 3.3). An Accucore Vanquish C18 column (100 × 2.1 mm, dp = 1.5 μm; Thermo Fisher Scientific) was protected by a corresponding XBridgeBEH C18, 5-μm guard column. The injection volume of sample was 5.0 μL. The temperature of the autosampler rack was 4 °C, and the temperature of the column was 40 °C. Mobile phase A consisted of water with 0.1% (v/v) formic acid and mobile phase B consisted of acetonitrile: methanol (1:3) with 0.1% (v/v) formic acid. The total run time was 5 min. The mobile phase was delivered at a flow rate of 0.4 mL/min, and the optimized gradient contained time-varying amounts of mobile phase B, as follows: 0-0.5 min, 10% B; 0.5-1.5 min, 95% B; 1.5-2.9 min, 95% B; 2.9-3.0 min, 10% B; and 3.0-5.0 min, 10% B. The mass spectrometric assay settings included a positive voltage applied to the ESI capillary of 3500 V, a capillary temperature of 342 °C, and a vaporizer temperature of 358 °C. Argon was used a collision gas at a pressure of 1.5 mTorr. […] For sample extraction by protein precipitation, 5 µL of plasma, 5 µL of microsomal suspension, or 10 µL of homogenized tissue were added to a tube containing 60 µL of internal standard solution and 20 µL of methanol. Samples were then vortex-mixed, centrifuged at 13,000 rpm for 9.5 min, and supernatants collected and stored frozen until analysis. […] The lower limit of quantification was 5 ng/mL, using 5-µL sample volumes.
# [6] = female CYP3A-/- mice, ibrutinib 10 mg/kg oral, no cotreatment, mean (SE)
# [7] = female OATP1B2(-/-) mice, ibrutinib 10 mg/kg PO, no co-treatment, mean (SD)
# [8] = female OATP2B1(-/-) mice, ibrutinib 10 mg/kg PO, no co-treatment, mean (SD)
# [9] = female wild-type C57BL/6 mice, ibrutinib 10 mg/kg PO, no co-treatment, mean (SD)
# [10] = female wild-type DBA mice, ibrutinib 10 mg/kg PO, no co-treatment, mean (SD)
# [11] = female wild-type FVB mice, ibrutinib 4 mg/kg oral, cotreatment cobicistat 30 mg/kg, mean (SE)
# [12] = female wild-type FVB mice, ibrutinib 10 mg/kg oral single dose, cotreatment cobicistat 30 mg/kg, mean (SE)
# [13] = female wild-type FVB mice, ibrutinib 10 mg/kg oral single dose, cotreatment corn oil, mean (SE)
# [14] = female wild-type FVB mice, ibrutinib 10 mg/kg oral, cotreatment PEG400, mean (SE)
# [15] = female wild-type FVB mice, ibrutinib 10 mg/kg oral, cotreatment cobicistat 30 mg/kg, steady-state, mean (SE)
# [16] = female wild-type FVB mice, ibrutinib 10 mg/kg oral, cotreatment corn oil, steady-state, mean (SE)
# [17] = female wild-type FVB mice, ibrutinib 10 mg/kg oral, cotreatment ketoconazole 50 mg/kg, mean (SE)
# [18] = female wild-type FVB mice, ibrutinib 10 mg/kg oral, no cotreatment, mean (SE)
# [19] = female wild-type FVB mice, ibrutinib 30 mg/kg oral, no cotreatment, mean (SE)
# [20] = male OATP2B1(-/-) mice, ibrutinib 10 mg/kg PO, no co-treatment, mean (SD)
# [21] = male wild-type C57BL/6 mice, ibrutinib 10 mg/kg PO, no co-treatment, mean (SD)
# [22] = male wild-type FVB mice, ibrutinib 10 mg/kg PO, co-treatment No Vehicle (cobicistat experiment), mean (SD)
# [23] = male wild-type FVB mice, ibrutinib 10 mg/kg PO, co-treatment None (ketoconazole experiment), mean (SD)
# [24] = male wild-type FVB mice, ibrutinib 10 mg/kg PO, co-treatment PEG400, mean (SD)
# [25] = male wild-type FVB mice, ibrutinib 10 mg/kg PO, co-treatment cobicistat, mean (SD)
# [26] = male wild-type FVB mice, ibrutinib 10 mg/kg PO, co-treatment corn oil, mean (SD)
# [27] = male wild-type FVB mice, ibrutinib 10 mg/kg PO, co-treatment ketoconazole, mean (SD)
compound,measurement,setting,value
Nc1ncnc2c1c(-c1ccc(Oc3ccccc3)cc1)nn2[C@@H]1CCCN(C(=O)C(O)CO)C1 (some centres unmarked) [PCI-45227],IIV CLm,[1]; inter-individual variability,0.0242
same,IIV Vm,[1]; inter-individual variability,1.38
same,Fmet (metabolism of PCI-45227),[1],0.0216
same,Vm (volume of distribution for the central compartment of PCI-45227),[1],0.0578
same,RV PCI,[1]; residual variability,0.730
same,B/P ratio,[2]; blood to plasma ratio,0.790
same,"fu, plasma",[2]; unbound drug in the plasma,0.056
same,pKa,[3]; acid dissociation constant,4.06
same,Log Po:w,[3]; octanol/water partition coefficient,2.21
same,PCI-45227: Parent AUC Ratio,[4]; co-treatment cobicistat,0.04
same,PCI-45227 AUC(0-last),[4]; co-treatment cobicistat,38 (27) ng*hr/mL
same,PCI-45227 Cmax,[4]; co-treatment cobicistat,25 (11) ng/mL
same,PCI-45227 AUC(0-last),[4]; co-treatment corn oil,311 (15) ng*hr/mL
same,PCI-45227 Cmax,[4]; co-treatment corn oil,197 (5) ng/mL
same,levels of PCI-45227,"[5]; CYP3A-/- mice, oral ibrutinib",almost undetectable levels
same,PCI-45227: Ibrutinib AUC ratio,"[5]; female CYP3A-/- mice, ibrutinib 10 mg/kg oral, no cotreatment",0.003
same,PCI-45227 AUC(0-last),[5]; [6],6.3 (1.7)^c ng/h/mL
same,PCI-45227 Cmax,[5]; [6],8.2 (2.1)^c ng/mL
same,PCI-45227: Parent AUC Ratio,"[5]; female OATP1B2(-/-) mice, ibrutinib 10 mg/kg PO, no co-treatment",0.14
same,PCI-45227 AUC(0-last),[5]; [7],304 (12) ng*hr/mL
same,PCI-45227 Cmax,[5]; [7],157 (9) ng/mL
same,PCI-45227: Parent AUC Ratio,"[5]; female OATP2B1(-/-) mice, ibrutinib 10 mg/kg PO, no co-treatment",1.1
same,PCI-45227 AUC(0-last),[5]; [8],1952 (168)** ng*hr/mL
same,PCI-45227 Cmax,[5]; [8],745 (115)** ng/mL
same,PCI-45227: Parent AUC Ratio,"[5]; female wild-type C57BL/6 mice, ibrutinib 10 mg/kg PO, no co-treatment",2.1
same,PCI-45227 AUC(0-last),[5]; [9],3007 (236) ng*hr/mL
same,PCI-45227 Cmax,[5]; [9],1373 (70) ng/mL
same,PCI-45227: Parent AUC Ratio,"[5]; female wild-type DBA mice, ibrutinib 10 mg/kg PO, no co-treatment",0.12
same,PCI-45227 AUC(0-last),[5]; [10],343 (52) ng*hr/mL
same,PCI-45227 Cmax,[5]; [10],234 (47) ng/mL
same,PCI-45227: Ibrutinib AUC ratio,"[5]; female wild-type FVB mice, ibrutinib 4 mg/kg oral, cotreatment cobicistat 30 mg/kg",0.05
same,PCI-45227 AUC(0-last),[5]; [11],56 (22)^c ng/h/mL
same,PCI-45227 Cmax,[5]; [11],30.7 (12.1)^c ng/mL
same,PCI-45227: Ibrutinib AUC ratio,"[5]; female wild-type FVB mice, ibrutinib 10 mg/kg oral single dose, cotreatment cobicistat 30 mg/kg",0.05
same,PCI-45227 AUC(0-last),[5]; [12],139 (56)^c ng/h/mL
same,PCI-45227 Cmax,[5]; [12],45 (14)^c ng/mL
same,PCI-45227: Ibrutinib AUC ratio,"[5]; female wild-type FVB mice, ibrutinib 10 mg/kg oral single dose, cotreatment corn oil",2.0
same,PCI-45227 AUC(0-last),[5]; [13],563 (91)^d ng/h/mL
same,PCI-45227 Cmax,[5]; [13],219 (61)^b ng/mL
same,PCI-45227: Ibrutinib AUC ratio,"[5]; female wild-type FVB mice, ibrutinib 10 mg/kg oral, cotreatment PEG400",0.87
same,PCI-45227 AUC(0-last),[5]; [14],668 (155) ng/h/mL
same,PCI-45227 Cmax,[5]; [14],246 (54) ng/mL
same,PCI-45227: Ibrutinib AUC ratio,"[5]; female wild-type FVB mice, ibrutinib 10 mg/kg oral, cotreatment cobicistat 30 mg/kg, steady-state",0.25
same,PCI-45227 AUC(0-last),[5]; [15],560 (73)^b ng/h/mL
same,PCI-45227 Cmax,[5]; [15],211 (65) ng/mL
same,PCI-45227: Ibrutinib AUC ratio,"[5]; female wild-type FVB mice, ibrutinib 10 mg/kg oral, cotreatment corn oil, steady-state",2.0
same,PCI-45227 AUC(0-last),[5]; [16],917 (128) ng/h/mL
same,PCI-45227 Cmax,[5]; [16],405 (74) ng/mL
same,PCI-45227: Ibrutinib AUC ratio,"[5]; female wild-type FVB mice, ibrutinib 10 mg/kg oral, cotreatment ketoconazole 50 mg/kg",0.08
same,PCI-45227 AUC(0-last),[5]; [17],682 (250) ng/h/mL
same,PCI-45227 Cmax,[5]; [17],288 (89) ng/mL
same,PCI-45227: Ibrutinib AUC ratio,"[5]; female wild-type FVB mice, ibrutinib 10 mg/kg oral, no cotreatment",2.5
same,PCI-45227 AUC(0-last),[5]; [18],765 (79) ng/h/mL
same,PCI-45227 Cmax,[5]; [18],447 (45) ng/mL
same,PCI-45227: Ibrutinib AUC ratio,"[5]; female wild-type FVB mice, ibrutinib 30 mg/kg oral, no cotreatment",1.9
same,PCI-45227 AUC(0-last),[5]; [19],"3,281 (154) ng/h/mL"
same,PCI-45227 Cmax,[5]; [19],837 (77) ng/mL
same,PCI-45227: Parent AUC Ratio,"[5]; male OATP2B1(-/-) mice, ibrutinib 10 mg/kg PO, no co-treatment",1.3
same,PCI-45227 AUC(0-last),[5]; [20],2236 (160)*** ng*hr/mL
same,PCI-45227 Cmax,[5]; [20],850 (96)* ng/mL
same,PCI-45227: Parent AUC Ratio,"[5]; male wild-type C57BL/6 mice, ibrutinib 10 mg/kg PO, no co-treatment",2.4
same,PCI-45227 AUC(0-last),[5]; [21],3338 (239) ng*hr/mL
same,PCI-45227 Cmax,[5]; [21],1252 (97) ng/mL
same,PCI-45227: Parent AUC Ratio,"[5]; male wild-type FVB mice, ibrutinib 10 mg/kg PO, co-treatment No Vehicle (cobicistat experiment)",2.8
same,PCI-45227 AUC(0-last),[5]; [22],1463 (83) ng*hr/mL
same,PCI-45227 Cmax,[5]; [22],578 (100) ng/mL
same,PCI-45227: Parent AUC Ratio,"[5]; male wild-type FVB mice, ibrutinib 10 mg/kg PO, co-treatment None (ketoconazole experiment)",2.5
same,PCI-45227 AUC(0-last),[5]; [23],1080 (153) ng*hr/mL
same,PCI-45227 Cmax,[5]; [23],333 (112) ng/mL
same,PCI-45227: Parent AUC Ratio,"[5]; male wild-type FVB mice, ibrutinib 10 mg/kg PO, co-treatment PEG400",1.5
same,PCI-45227 AUC(0-last),[5]; [24],929 (164) ng*hr/mL
same,PCI-45227 Cmax,[5]; [24],293 (69) ng/mL
same,PCI-45227: Parent AUC Ratio,"[5]; male wild-type FVB mice, ibrutinib 10 mg/kg PO, co-treatment cobicistat",0.096
same,PCI-45227 AUC(0-last),[5]; [25],417 (60)*** ng*hr/mL
same,PCI-45227 Cmax,[5]; [25],124 (34)* ng/mL
same,PCI-45227: Parent AUC Ratio,"[5]; male wild-type FVB mice, ibrutinib 10 mg/kg PO, co-treatment corn oil",1.7
same,PCI-45227 AUC(0-last),[5]; [26],1124 (152)^a ng*hr/mL
same,PCI-45227 Cmax,[5]; [26],308 (70) ng/mL
same,PCI-45227: Parent AUC Ratio,"[5]; male wild-type FVB mice, ibrutinib 10 mg/kg PO, co-treatment ketoconazole",0.14
same,PCI-45227 AUC(0-last),[5]; [27],911 (94) ng*hr/mL
same,PCI-45227 Cmax,[5]; [27],236 (37) ng/mL
same,levels of PCI-45227,"[5]; mice lacking OATP2B1 vs wild-type, ibrutinib 10 mg/kg orally, P < 0.05",decreased
same,levels of PCI-45227 and PCI-45227-to-ibrutinib ratio,"[5]; wild-type mice, cobicistat pretreatment",significantly decreased
